# Measurements published in patent US20250114338A1, “TETRAHYDRO-PYRIDO[3,4-b]INDOLE ESTROGEN RECEPTOR MODULATORS AND USES THEREOF” (Genentech, Inc., priority 2014, published 2025).
# Test system: ER-alpha MCF7
# Experiment: ER-alpha MCF7 HCS EC50; stated as measured by in vitro cell proliferation assays of Examples 902 and 903
# Assay type: cell-based
# Conditions: Homo sapiens, MCF7, MCF7 cells; Table 2
# Outline: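 MCF7 cells seeded 1000-2000 cells/well for 16 h, then treated with nine-point 1:2 DMSO dilution series in quadruplicate at 37 °C, 5% CO2 for 4 days. Viable cells quantified by CellTiter-Glo ATP luminescence; EC50 calculated. Controls: fulvestrant at final 100 nM, DMSO 0.2% v/v.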
row,EC50,Compound
1,1.56 nM,"C[C@@H]1Cc2c([nH]c3ccc(Cl)cc23)[C@@H](c2c(F)cc(OC3CN(CCCF)C3)cc2F)N1CC(C)(C)F [Example 239, (1R,3R)-6-chloro-1-(2,6-difluoro-4-((1-(3-fluoropropyl)azetidin-3-yl)oxy)phenyl)-2-(2-fluoro-2-methylpropyl)-3-methyl-2,3,4,9-tetrahydro-1H-pyrido[3,4-b]indole]"
2,0.261 nM,"C[C@@H]1Cc2c([nH]c3cc(F)ccc23)[C@@H](c2c(F)cc(OCCN3CC(CF)C3)cc2F)N1CC(C)(C)F [Example 240, (1R,3R)-1-(2,6-difluoro-4-(2-(3-(fluoromethyl)azetidin-1-yl)ethoxy)phenyl)-7-fluoro-2-(2-fluoro-2-methylpropyl)-3-methyl-2,3,4,9-tetrahydro-1H-pyrido[3,4-b]indole]"
3,0.381 nM,"C[C@@H]1Cc2c([nH]c3ccc(F)cc23)[C@@H](c2c(F)cc(OCCN3CC(CF)C3)cc2F)N1CC(C)(C)F [Example 241, (1R,3R)-1-(2,6-difluoro-4-(2-(3-(fluoromethyl)azetidin-1-yl)ethoxy)phenyl)-6-fluoro-2-(2-fluoro-2-methylpropyl)-3-methyl-2,3,4,9-tetrahydro-1H-pyrido[3,4-b]indole]"
4,5.42 nM,"C[C@@H]1Cc2c([nH]c3ccc(F)cc23)[C@@H](c2c(F)cc(OC3CN(CCCF)C3)cc2F)N1CC(C)(C)F [Example 242, (1R,3R)-1-(2,6-difluoro-4-((1-(3-fluoropropyl)azetidin-3-yl)oxy)phenyl)-6-fluoro-2-(2-fluoro-2-methylpropyl)-3-methyl-2,3,4,9-tetrahydro-1H-pyrido[3,4-b]indole]"
5,2 nM,"C[C@@H]1Cc2c([nH]c3ccccc23)[C@@H](c2c(F)cc(OCCN3CC(CF)C3)cc2F)N1CC1(CO)CC1 [Example 243, (1-(((1R,3R)-1-(2,6-difluoro-4-(2-(3-(fluoromethyl)azetidin-1-yl)ethoxy)phenyl)-3-methyl-1,3,4,9-tetrahydro-2H-pyrido[3,4-b]indol-2-yl)methyl)cyclopropyl) methanol]"
6,63 nM,"C[C@H]1Cc2c([nH]c3ccc(Cl)cc23)[C@H](c2c(F)cc(OC3CN(CCCF)C3)cc2F)N1CC(C)(C)F [Example 244, (1S,3S)-6-chloro-1-(2,6-difluoro-4-((1-(3-fluoropropyl)azetidin-3-yl)oxy)phenyl)-2-(2-fluoro-2-methylpropyl)-3-methyl-2,3,4,9-tetrahydro-1H-pyrido[3,4-b]indole]"
7,35 nM,"C[C@H]1Cc2c([nH]c3ccc(F)cc23)[C@H](c2c(F)cc(OCCN3CC(CF)C3)cc2F)N1CC(C)(C)F [Example 245, (1S,3S)-1-(2,6-difluoro-4-(2-(3-(fluoromethyl)azetidin-1-yl)ethoxy)phenyl)-6-fluoro-2-(2-fluoro-2-methylpropyl)-3-methyl-2,3,4,9-tetrahydro-1H-pyrido[3,4-b]indole]"
8,0.358 nM,"C[C@@H]1Cc2c([nH]c3ccccc23)[C@@H](c2c(F)cc(OC3CN(CCCF)C3)cc2F)N1CC1(C)COC1 [Example 246, (1R,3R)-1-[2,6-difluoro-4-[1-(3-fluoropropyl)azetidin-3-yl]oxy-phenyl]-3-methyl-2-[(3-methyloxetan-3-yl)methyl]-1,3,4,9-tetrahydropyrido[3,4-b]indole]"
9,4.34 nM,"C[C@@H]1Cc2c([nH]c3cccc(F)c23)[C@@H](c2c(F)cc(OCCN3CC(CF)C3)cc2F)N1CC(C)(C)F [Example 247, (1R,3R)-1-(2,6-difluoro-4-(2-(3-(fluoromethyl)azetidin-1-yl)ethoxy)phenyl)-5-fluoro-2-(2-fluoro-2-methylpropyl)-3-methyl-2,3,4,9-tetrahydro-1H-pyrido[3,4-b]indole]"
10,0.518 nM,"C[C@@H]1Cc2c([nH]c3cc(F)ccc23)[C@@H](c2c(F)cc(OC3CN(CCCF)C3)cc2F)N1CC(C)(C)F [Example 248, (1R,3R)-1-(2,6-difluoro-4-((1-(3-fluoropropyl)azetidin-3-yl)oxy)phenyl)-7-fluoro-2-(2-fluoro-2-methylpropyl)-3-methyl-2,3,4,9-tetrahydro-1H-pyrido[3,4-b]indole]"
11,0.511 nM,"C[C@@H]1Cc2c([nH]c3cccc(F)c23)[C@@H](c2c(F)cc(OC3CN(CCCF)C3)cc2F)N1CC(C)(C)F [Example 249, (1R,3R)-1-(2,6-difluoro-4-((1-(3-fluoropropyl)azetidin-3-yl)oxy)phenyl)-5-fluoro-2-(2-fluoro-2-methylpropyl)-3-methyl-2,3,4,9-tetrahydro-1H-pyrido[3,4-b]indole]"
12,0.275 nM,"C[C@@H]1Cc2c([nH]c3ccccc23)[C@@H](c2ccc(OCCN3CC[C@@H](CF)C3)cc2)N1CC(C)(C)F [Example 250, (1R,3R)-2-(2-fluoro-2-methyl-propyl)-1-[4-[2-[(3R)-3-(fluoromethyl)pyrrolidin-1-yl]ethoxy]phenyl]-3-methyl-1,3,4,9-tetrahydropyrido[3,4-b]indole]"
13,21 nM,"C[C@H]1Cc2c([nH]c3cccc(F)c23)[C@H](c2c(F)cc(OCCN3CC(CF)C3)cc2F)N1CC(C)(C)F [Example 251, (1S,3S)-1-(2,6-difluoro-4-(2-(3-(fluoromethyl)azetidin-1-yl)ethoxy)phenyl)-5-fluoro-2-(2-fluoro-2-methylpropyl)-3-methyl-2,3,4,9-tetrahydro-1H-pyrido[3,4-b]indole]"
14,50 nM,"C[C@H]1Cc2c([nH]c3cc(F)ccc23)[C@H](c2c(F)cc(OC3CN(CCCF)C3)cc2F)N1CC(C)(C)F [Example 252, (1S,3S)-1-(2,6-difluoro-4-((1-(3-fluoropropyl)azetidin-3-yl)oxy)phenyl)-7-fluoro-2-(2-fluoro-2-methylpropyl)-3-methyl-2,3,4,9-tetrahydro-1H-pyrido[3,4-b]indole]"
15,35 nM,"C[C@H]1Cc2c([nH]c3cccc(F)c23)[C@H](c2c(F)cc(OC3CN(CCCF)C3)cc2F)N1CC(C)(C)F [Example 253, (1S,3S)-1-(2,6-difluoro-4-((1-(3-fluoropropyl)azetidin-3-yl)oxy)phenyl)-5-fluoro-2-(2-fluoro-2-methylpropyl)-3-methyl-2,3,4,9-tetrahydro-1H-pyrido[3,4-b]indole]"
16,40 nM,"C[C@@H]1Cc2c([nH]c3ccccc23)[C@@H](c2c(F)cc(OCCN3CC(CF)C3)cc2F)N1CC(=O)N(C)C [Example 254, 2-[(1R,3R)-1-[2,6-difluoro-4-[2-[3-(fluoromethyl)azetidin-1-yl]ethoxy]phenyl]-3-methyl-1,3,4,9-tetrahydropyrido[3,4-b]indol-2-yl]-N,N-dimethyl-acetamide]"
17,0.01 nM,"C[C@@H]1Cc2c([nH]c3ccccc23)[C@@H](c2c(F)cc(OCCN3CC(CF)C3)cc2F)N1CC(C)(F)CO (stereo partly drawn) [Example 255, 3-((1R,3R)-1-(2,6-difluoro-4-(2-(3-(fluoromethyl)azetidin-1-yl)ethoxy)phenyl)-3-methyl-1,3,4,9-tetrahydro-2H-pyrido[3,4-b]indol-2-yl)-2-fluoro-2-methylpropan-1-ol]"
18,1.69 nM,"Cc1cc(OC2CN(CCCF)C2)ccc1[C@@H]1c2[nH]c3ccccc3c2C[C@@H](C)N1CC(C)(C)F [Example 256, (1R,3R)-2-(2-fluoro-2-methyl-propyl)-1-[4-[1-(3-fluoropropyl)azetidin-3-yl]oxy-2-methyl-phenyl]-3-methyl-1,3,4,9-tetrahydropyrido[3,4-b]indole]"
19,1.09 nM,"CC(C)(F)CN1[C@H](c2c(F)cc(OCCN3CC(CF)C3)cc2F)c2[nH]c3ccccc3c2CC1(C)C [Example 257, (1R)-1-[2,6-difluoro-4-[2-[3-(fluoromethyl)azetidin-1-yl]ethoxy]phenyl]-2-(2-fluoro-2-methyl-propyl)-3,3-dimethyl-4,9-dihydro-1H-pyrido[3,4-b]indole]"
20,31 nM,"CC(C)(F)CN1[C@@H](c2c(F)cc(OCCN3CC(CF)C3)cc2F)c2[nH]c3ccccc3c2CC1(C)C [Example 258, (S)-1-(2,6-difluoro-4-(2-(3-(fluoromethyl)azetidin-1-yl)ethoxy)phenyl)-2-(2-fluoro-2-methylpropyl)-3,3-dimethyl-2,3,4,9-tetrahydro-1H-pyrido[3,4-b]indole]"
21,0.444 nM,"C[C@@H]1Cc2c([nH]c3ccccc23)[C@@H](c2c(F)cc(OC3CN(CC4CC(F)(F)C4)C3)cc2F)N1CC(C)(C)F [Example 259, (1R,3R)-1-[4-[1-[(3,3-difluorocyclobutyl)methyl]azetidin-3-yl]oxy-2,6-difluoro-phenyl]-2-(2-fluoro-2-methyl-propyl)-3-methyl-1,3,4,9-tetrahydropyrido[3,4-b]indole]"
22,0.881 nM,"C[C@@H]1Cc2c([nH]c3c(F)cccc23)[C@@H](c2c(F)cc(OCCN3CC(CF)C3)cc2F)N1CC(C)(C)F [Example 260, (1R,3R)-1-(2,6-difluoro-4-(2-(3-(fluoromethyl)azetidin-1-yl)ethoxy)phenyl)-8-fluoro-2-(2-fluoro-2-methylpropyl)-3-methyl-2,3,4,9-tetrahydro-1H-pyrido[3,4-b]indole]"
23,0.28 nM,"C[C@@H]1Cc2c([nH]c3c(F)cccc23)[C@@H](c2c(F)cc(OC3CN(CCCF)C3)cc2F)N1CC(C)(C)F [Example 261, (1R,3R)-1-(2,6-difluoro-4-((1-(3-fluoropropyl)azetidin-3-yl)oxy)phenyl)-8-fluoro-2-(2-fluoro-2-methylpropyl)-3-methyl-2,3,4,9-tetrahydro-1H-pyrido[3,4-b]indole]"
24,26 nM,"C[C@H]1Cc2c([nH]c3c(F)cccc23)[C@H](c2c(F)cc(OCCN3CC(CF)C3)cc2F)N1CC(C)(C)F [Example 262, (1S,3S)-1-(2,6-difluoro-4-(2-(3-(fluoromethyl)azetidin-1-yl)ethoxy)phenyl)-8-fluoro-2-(2-fluoro-2-methylpropyl)-3-methyl-2,3,4,9-tetrahydro-1H-pyrido[3,4-b]indole]"
25,0.359 nM,"C[C@H](O)CN1[C@H](c2c(F)cc(OC3CN(CCCF)C3)cc2F)c2[nH]c3ccccc3c2C[C@H]1C [Example 263, (S)-1-((1R,3R)-1-(2,6-difluoro-4-((1-(3-fluoropropyl)azetidin-3-yl)oxy)phenyl)-3-methyl-1,3,4,9-tetrahydro-2H-pyrido[3,4-b]indol-2-yl)propan-2-ol]"
